According to patent US20110173718A1, “HERBICIDE TOLERANT PLANTS” (SYNGENTA CROP PROTECTION, INC., priority 2008, published 2011):
“And” between values parts separate entries of the source, which are not always exact repeats. Identical values can stand only once.

Experiments:
[1] = system: Arabidopsis HST transgenic tobacco plants; assay: Glasshouse spray test, Arabidopsis HST transgenic tobacco; type: in vivo; conditions: for % damaged: 8 DAT; for blch (% bleaching at the meristem relative to control plants) / ht (% height reduction relative to control plants): 100 g, individual T0 lines
Excerpt: For example the Arabidopsis HST SEQ ID # 11 is cloned behind a double 35s CMV promoter sequence and a TMV translational enhancer sequence and in front of the 3′ terminator from the nos gene. This expression cassette is ligated into pMJB1 (described in WO98/20144) and then into pBIN19 and then transformed into Agrobacterium tuniqfaciens strains LBA4404 prior to plant transformation.
For example, the full length Arabidopsis HST seq ID # 11 is fused to the TMV translational enhancer sequence (SEQ ID #33) by overlapping PCR and, at the same time, 5′ XhoI site and a 3′KpnI site are added by PCR. Site-directed mutagenesis is performed to remove an internal XhoI site. The TMV/HPPD fusion is removed from the pBIN19 by digestion with XhoI/KpnI and is replaced by the TMV/HST fusion (SEQ ID #34). The TMV/HST fusion is now cloned behind a double 35s promoter and in front of the 3′ terminator from the nos gene. Again the modified pBIN19 vector (‘pBinAT HST’) is then transformed into Agrobacterium tumefaciens strain LBA4404.
A master plate of Agrobacterium tumefaciens containing the binary vector pBinAT HST (described above) or analogous binary vector comprising a different HST is used to inoculate 10 ml LB containing 100 mg/1 Rifampicin plus 50 mg/1 Kanamycin using a single bacterial colony. This is incubated overnight at 28° C. shaking at 200 rpm. This entire overnight culture is used to inoculate a 50 ml volume of LA (plus antibiotics). Again this is cultured overnight at 28° C. shaking at 200 rpm. The Agrobacterium cells are pelleted by centrifuging at 3000 rpm for 15 minutes then resuspended in MS medium with 30 g/1 sucrose, pH 5.9 to an OD ([…])=0.6. This suspension is dispensed in 25 ml aliquots into petri dishes.
Clonal micro-propagated tobacco shoot cultures are used to excise young (not yet fully expanded) leaves. The mid rib and outer leaf margins are removed and discarded, the remaining lamina is cut into 1 cm squares. These are transferred to the Agrobacterium suspension for 20 minutes. Explants are then removed, dabbed on sterile filter paper to remove excess suspension then transferred to NBM medium (MS medium, 30 g/1 sucrose, 1 mg/1 BAP, 0.1 mg/1 NAA, pH 5.9, solidified with 8 g/1 Plantagar), with the abaxial surface of each explant in contact with the medium. Approximately 7 explants are transferred per plate, which are then sealed then maintained in a lit incubator at 25° C., 16 hour photoperiod for 3 days.
Explants are then transferred to NBM medium containing 100 mg/1 Kanamycin plus antibiotics to prevent further growth of Agrobacterium (200 mg/1 timentin with 250 mg/1 carbenicillin). Further subculture on to this same medium is then performed every 2 weeks.
As shoots start to regenerate from the callusing leaf explants these are removed to Shoot elongation medium (MS medium, 30 g/1 sucrose, 8 g/1 Plantagar, 100 mg/1 Kanamycin, 200 mg/1 timentin, 250 mg/1 carbenicillin, pH 5.9). Stable transgenic plants readily root within 2 weeks. To provide multiple plants per event to ultimately allow more than one herbicide test per transgenic plant all rooting shoots are micropropagated to generate 3 or more rooted clones.
Putative transgenic plants that are rooting and show vigorous shoot growth on the medium incorporating Kanamycin are analysed by PCR using primers that amplified a 500 bp fragment within the Arabidopsis HST transgene.
Rooted transgenic T0 plantlets are transferred from agar and potted into 50% peat, 50% John Innes soil no 3 or, for example, MetroMix® 380 soil (Sun Gro Horticulture, Bellevue, Wash.) with slow-release fertilizer in 3 inch round or 4 inch square pots and left regularly watered to establish for 8-12 d in the glass house. Glass house conditions are about 24-27° C. day; 18-21° C. night and approximately a 14 h (or longer in UK summer) photoperiod. Humidity is ˜65% and light levels up to 2000 μmol/m^2 at bench level. […]

weeds = assay: Glasshouse weed control by HST/HPPD (mesotrione) mixtures, post-emergence; type: in vivo; conditions: post-emergence; for % damage, 1 g ai ha^−1 mesotrione / % damage, no-mesotrione: 14 DAT; for colby: difference to Colby expectation
Method: Weed seeds are planted out in trays containing suitable soil (for example 50% peat, 50% John Innes soil no 3) and grown in the glass house conditions under 24-27° C. day; 18-21° C. night and approximately a 14 h (or longer in UK summer) photoperiod. Humidity is ˜65% and light levels up to 2000 μmol/m^2 at bench level. Trays are sprayed with test chemicals dissolved in water with 0.2-0.25% X-77 surfactant and sprayed from a boom on a suitable track sprayer moving at about 2 mph in a suitable track sprayer (for example a DeVries spray chamber with the nozzle about 2 inches from the plant tops). Spray volume is suitably 500-1000 l/ha. Sprays are carried out both pre-emergence and over small plants at about 7-12 d post-emergence
Plants are assessed 14 DAT and herbicidal damage is scored on a scale from 0 to 100%. The HST inhibitor compound 2.30 (designated compound A in table 16 and 17), haloxydine (compound 1.1) and compound 2.13 (designated compound AE in tables 16 and 17) are sprayed at rates between 0 and 500 g/ha.

[2] = ALOMY, 16 g/ha + 1 g ai/ha mesotrione
[3] = ALOMY, 31 g/ha + 1 g ai/ha mesotrione
[4] = ALOMY, 63 g/ha + 1 g ai/ha mesotrione
[5] = ALOMY, 125 g/ha + 1 g ai/ha mesotrione
[6] = ALOMY, 250 g/ha + 1 g ai/ha mesotrione
[7] = ALOMY, 500 g/ha + 1 g ai/ha mesotrione
[8] = ECHCG, 16 g/ha + 1 g ai/ha mesotrione
[9] = ECHCG, 31 g/ha + 1 g ai/ha mesotrione
[10] = ECHCG, 63 g/ha + 1 g ai/ha mesotrione
[11] = ECHCG, 125 g/ha + 1 g ai/ha mesotrione
[12] = ECHCG, 250 g/ha + 1 g ai/ha mesotrione
[13] = ECHCG, 500 g/ha + 1 g ai/ha mesotrione
[14] = SETFA, 16 g/ha + 1 g ai/ha mesotrione
[15] = SETFA, 31 g/ha + 1 g ai/ha mesotrione
[16] = SETFA, 63 g/ha + 1 g ai/ha mesotrione
[17] = SETFA, 125 g/ha + 1 g ai/ha mesotrione
[18] = SETFA, 250 g/ha + 1 g ai/ha mesotrione
[19] = SETFA, 500 g/ha + 1 g ai/ha mesotrione

Question: With Oc1c(Cl)c(F)nc(F)c1Cl [Compound 1.1, haloxydine] as the compound, how does the “% damaged” value ([1]; 250 g/ha, line E9) read?
Answer: Its value is 20% and 40%.

Question: What about the “% damaged” value ([1]; 250 g/ha, line F6) of the same compound?
Answer: The value was 50% and 75%.

Question: And the appearance of plants ([1]; 250 g/ha, 25 DAT, line E9)?
Answer: The appearance of plants was “healthy and similar sized to untreated control plants”.

Question: And the “% damage” value ([1]; 250 g/ha, 25 DAT, line F6)?
Answer: Its value is 50-70%.

Question: How did the “blch (% bleaching at the meristem relative to control plants)” value ([1]; 7 DAT) turn out when CC(C)C(=O)Oc1c(-c2c(F)ccc(Br)c2Cl)c(=O)n(CC(F)F)c2nccnc12 [Compound 2.30] was run?
Answer: The value was 30% (2×) and 5% (4×) and 10% (3×) and 15% (2×) and 50% and 70% (2×) and 20% (2×) and 0% (5×) and 40% and 100% and 80% and 25%.

Question: And the “ht (% height reduction relative to control plants)” value ([1]; 7 DAT)?
Answer: The value was 30% (4×) and 0% (7×) and 50% and 70% (3×) and 80% (3×) and 40% (2×) and 5% and 10% (2×) and 15% and 20%.

Question: And the “blch (% bleaching at the meristem relative to control plants)” value ([1]; 26 DAT)?
Answer: Its value is 25% (2×) and 0% (16×) and 100% and 85% (2×) and 90% (4×).

Question: What about the “ht (% height reduction relative to control plants)” value ([1]; 26 DAT) of the same compound?
Answer: Its value is 75% (2×) and 5% (6×) and 15% (2×) and 30% (4×) and 50% (2×) and 60% and 80% and 90% (4×) and 35% and 10% (2×).

Question: And the “% damage, 1 g ai ha^−1 mesotrione” value (weeds; [2])?
Answer: Its value is 2%.

Question: What about the colby (weeds; [2]) of the same compound?
Answer: Its colby is 0.

Question: And the “% damage, no-mesotrione” value (weeds; ALOMY, 16 g/ha)?
Answer: Its value is 2%.

Question: What about the “% damage, 1 g ai ha^−1 mesotrione” value (weeds; [3]) of the same compound?
Answer: Its value is 3%.

Question: What about the colby (weeds; [3]) of the same compound?
Answer: Its colby is 0.

Question: And the “% damage, no-mesotrione” value (weeds; ALOMY, 31 g/ha)?
Answer: Its value is 3%.

Question: And the “% damage, 1 g ai ha^−1 mesotrione” value (weeds; [4])?
Answer: Its value is 10%.

Question: And the colby (weeds; [4])?
Answer: Its colby is 5.

Question: And the “% damage, no-mesotrione” value (weeds; ALOMY, 63 g/ha)?
Answer: Its value is 5%.

Question: And the “% damage, 1 g ai ha^−1 mesotrione” value (weeds; [5])?
Answer: Its value is 20%.

Question: What about the colby (weeds; [5]) of the same compound?
Answer: The colby was 7.

Question: What about the “% damage, no-mesotrione” value (weeds; ALOMY, 125 g/ha) of the same compound?
Answer: The value was 13%.

Question: What about the “% damage, 1 g ai ha^−1 mesotrione” value (weeds; [6]) of the same compound?
Answer: Its value is 22%.

Question: What about the colby (weeds; [6]) of the same compound?
Answer: The colby was 7.

Question: And the “% damage, no-mesotrione” value (weeds; ALOMY, 250 g/ha)?
Answer: The value was 15%.

Question: And the “% damage, 1 g ai ha^−1 mesotrione” value (weeds; [7])?
Answer: Its value is 35%.

Question: And the colby (weeds; [7])?
Answer: Its colby is 12.

Question: And the “% damage, no-mesotrione” value (weeds; ALOMY, 500 g/ha)?
Answer: The value was 23%.

Question: What about the “% damage, 1 g ai ha^−1 mesotrione” value (weeds; [8]) of the same compound?
Answer: Its value is 17%.

Question: And the colby (weeds; [8])?
Answer: The colby was −2.

Question: What about the “% damage, no-mesotrione” value (weeds; ECHCG, 16 g/ha) of the same compound?
Answer: Its value is 12%.

Question: And the “% damage, 1 g ai ha^−1 mesotrione” value (weeds; [9])?
Answer: Its value is 38%.

Question: What about the colby (weeds; [9]) of the same compound?
Answer: The colby was 13.

Question: And the “% damage, no-mesotrione” value (weeds; ECHCG, 31 g/ha)?
Answer: The value was 18%.

Question: And the “% damage, 1 g ai ha^−1 mesotrione” value (weeds; [10])?
Answer: Its value is 42%.

Question: And the colby (weeds; [10])?
Answer: The colby was −5.

Question: What about the “% damage, no-mesotrione” value (weeds; ECHCG, 63 g/ha) of the same compound?
Answer: The value was 42%.

Question: What about the “% damage, 1 g ai ha^−1 mesotrione” value (weeds; [11]) of the same compound?
Answer: The value was 53%.

Question: What about the colby (weeds; [11]) of the same compound?
Answer: The colby was −7.

Question: And the “% damage, no-mesotrione” value (weeds; ECHCG, 125 g/ha)?
Answer: The value was 57%.

Question: And the “% damage, 1 g ai ha^−1 mesotrione” value (weeds; [12])?
Answer: Its value is 68%.

Question: And the colby (weeds; [12])?
Answer: Its colby is 0.

Question: What about the “% damage, no-mesotrione” value (weeds; ECHCG, 250 g/ha) of the same compound?
Answer: The value was 65%.

Question: What about the “% damage, 1 g ai ha^−1 mesotrione” value (weeds; [13]) of the same compound?
Answer: The value was 75%.

Question: What about the colby (weeds; [13]) of the same compound?
Answer: The colby was 6.

Question: And the “% damage, no-mesotrione” value (weeds; ECHCG, 500 g/ha)?
Answer: The value was 67%.

Question: What about the “% damage, 1 g ai ha^−1 mesotrione” value (weeds; [14]) of the same compound?
Answer: The value was 18%.

Question: What about the colby (weeds; [14]) of the same compound?
Answer: Its colby is −5.

Question: And the “% damage, no-mesotrione” value (weeds; SETFA, 16 g/ha)?
Answer: The value was 23%.

Question: And the “% damage, 1 g ai ha^−1 mesotrione” value (weeds; [15])?
Answer: Its value is 42%.

Question: What about the colby (weeds; [15]) of the same compound?
Answer: Its colby is 10.

Question: What about the “% damage, no-mesotrione” value (weeds; SETFA, 31 g/ha) of the same compound?
Answer: The value was 32%.

Question: What about the “% damage, 1 g ai ha^−1 mesotrione” value (weeds; [16]) of the same compound?
Answer: Its value is 42%.

Question: What about the colby (weeds; [16]) of the same compound?
Answer: Its colby is 8.

Question: And the “% damage, no-mesotrione” value (weeds; SETFA, 63 g/ha)?
Answer: Its value is 33%.

Question: What about the “% damage, 1 g ai ha^−1 mesotrione” value (weeds; [17]) of the same compound?
Answer: Its value is 62%.

Question: What about the colby (weeds; [17]) of the same compound?
Answer: The colby was 5.

Question: What about the “% damage, no-mesotrione” value (weeds; SETFA, 125 g/ha) of the same compound?
Answer: The value was 57%.

Question: And the “% damage, 1 g ai ha^−1 mesotrione” value (weeds; [18])?
Answer: The value was 75%.

Question: And the colby (weeds; [18])?
Answer: The colby was 10.

Question: And the “% damage, no-mesotrione” value (weeds; SETFA, 250 g/ha)?
Answer: Its value is 65%.

Question: What about the “% damage, 1 g ai ha^−1 mesotrione” value (weeds; [19]) of the same compound?
Answer: Its value is 75%.

Question: What about the colby (weeds; [19]) of the same compound?
Answer: Its colby is 5.

Question: And the “% damage, no-mesotrione” value (weeds; SETFA, 500 g/ha)?
Answer: Its value is 70%.
